Measured values from ChEMBL document CHEMBL4304775, “Identification and characterization of a novel chemotype for human TLR8 inhibitors” (Eur J Med Chem, 2019).
Calls of active or inactive are those of the source. No cut-off for these calls is given here.

Tests used:
[1] = target: Toll-like receptor 4 (Homo sapiens) (UniProt O00206); test: […] at TLR4 in human THP1 cells assessed as inhibition of LPS-induced IL-8 secretion preincubated for 1 hr followed by LPS-stimulation and measured after 24 hrs by ELISA; type: cell-based
[2] = tested on: THP-1; test: Antiinflammatory activity in human THP1 cells assessed as reduction in CL075-induced IL-8 secretion at 10 to 25 uM preincubated for 1 hr followed by CL075-stimulation and measured after 24 hrs by ELISA relative to control; type: functional
[3] = Cytotoxicity against human HEK-Blue cells transfected with hTLR8 at 25 to 50 uM after 24 hrs by MTT assay; type: cell-based
[4] = target: Toll-like receptor 3 (Homo sapiens) (UniProt O15455); test: […] at TLR3 in human THP1 cells assessed as inhibition of poly(A:U)-induced IL-8 secretion preincubated for 1 hr followed by poly(A:U)-stimulation and measured after 24 hrs by ELISA; type: cell-based
[5] = tested on: THP-1; test: Cytotoxicity against human THP1 cells at 25 to 100 uM after 24 hrs by MTT assay; type: cell-based; conditions: thp-1, 24 h
[6] = tested on: THP-1; test: Antiinflammatory activity in human THP1 cells assessed as reduction in CL075-induced TNF secretion at 10 to 25 uM preincubated for 1 hr followed by CL075-stimulation and measured after 4 hrs by ELISA relative to control; type: functional
[7] = target: T1, Toll-like receptor 7 (Homo sapiens) (UniProt Q9NYK1); test: Antagonist activity at human TLR7 expressed in HEK-Blue cells assessed as inhibition of CL075-induced NF-kappaB activation incubated for 1 hr followed by CL075-stimulation and measured after 24 hrs by quanti-blue SEAP assay; type: cell-based
T1 sequence (whole entry): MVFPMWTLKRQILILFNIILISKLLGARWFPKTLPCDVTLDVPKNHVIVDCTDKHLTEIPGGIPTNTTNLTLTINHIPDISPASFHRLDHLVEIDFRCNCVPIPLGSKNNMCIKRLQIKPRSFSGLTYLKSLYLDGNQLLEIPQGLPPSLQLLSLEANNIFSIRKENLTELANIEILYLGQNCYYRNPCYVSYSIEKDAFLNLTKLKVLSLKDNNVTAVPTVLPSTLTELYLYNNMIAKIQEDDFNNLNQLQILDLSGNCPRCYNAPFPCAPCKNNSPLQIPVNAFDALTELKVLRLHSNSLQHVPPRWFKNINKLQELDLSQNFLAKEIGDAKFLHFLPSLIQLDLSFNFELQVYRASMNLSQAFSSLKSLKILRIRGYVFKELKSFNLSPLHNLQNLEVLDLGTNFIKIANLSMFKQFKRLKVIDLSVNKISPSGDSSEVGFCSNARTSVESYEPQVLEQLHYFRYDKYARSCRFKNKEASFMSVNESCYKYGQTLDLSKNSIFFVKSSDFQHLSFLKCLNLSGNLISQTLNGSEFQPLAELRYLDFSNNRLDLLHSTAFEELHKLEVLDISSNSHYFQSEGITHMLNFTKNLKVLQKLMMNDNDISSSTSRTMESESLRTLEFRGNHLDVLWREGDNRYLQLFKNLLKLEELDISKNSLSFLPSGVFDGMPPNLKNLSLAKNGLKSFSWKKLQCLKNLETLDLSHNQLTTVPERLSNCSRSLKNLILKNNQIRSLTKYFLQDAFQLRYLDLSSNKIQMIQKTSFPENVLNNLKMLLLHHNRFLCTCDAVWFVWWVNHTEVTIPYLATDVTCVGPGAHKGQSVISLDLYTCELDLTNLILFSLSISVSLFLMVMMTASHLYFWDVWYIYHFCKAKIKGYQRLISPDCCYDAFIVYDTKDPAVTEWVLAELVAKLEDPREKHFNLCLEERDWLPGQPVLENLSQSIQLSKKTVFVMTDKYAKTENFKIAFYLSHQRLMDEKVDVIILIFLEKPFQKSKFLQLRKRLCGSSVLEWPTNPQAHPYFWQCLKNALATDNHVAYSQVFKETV

[8] = Cytotoxicity against human HEK-Blue cells transfected with hTLR8 assessed as reduction in cell viability at 50 uM after 24 hrs by MTT assay; type: cell-based
[9] = target: T2, Toll-like receptor 8 (Homo sapiens) (UniProt Q9NR97); test: Antagonist activity at human TLR8 expressed in HEK-Blue cells assessed as inhibition of CL075-induced NF-kappaB activation incubated for 1 hr followed by CL075-stimulation and measured after 24 hrs by quanti-blue SEAP assay; type: cell-based
T2 sequence (whole entry): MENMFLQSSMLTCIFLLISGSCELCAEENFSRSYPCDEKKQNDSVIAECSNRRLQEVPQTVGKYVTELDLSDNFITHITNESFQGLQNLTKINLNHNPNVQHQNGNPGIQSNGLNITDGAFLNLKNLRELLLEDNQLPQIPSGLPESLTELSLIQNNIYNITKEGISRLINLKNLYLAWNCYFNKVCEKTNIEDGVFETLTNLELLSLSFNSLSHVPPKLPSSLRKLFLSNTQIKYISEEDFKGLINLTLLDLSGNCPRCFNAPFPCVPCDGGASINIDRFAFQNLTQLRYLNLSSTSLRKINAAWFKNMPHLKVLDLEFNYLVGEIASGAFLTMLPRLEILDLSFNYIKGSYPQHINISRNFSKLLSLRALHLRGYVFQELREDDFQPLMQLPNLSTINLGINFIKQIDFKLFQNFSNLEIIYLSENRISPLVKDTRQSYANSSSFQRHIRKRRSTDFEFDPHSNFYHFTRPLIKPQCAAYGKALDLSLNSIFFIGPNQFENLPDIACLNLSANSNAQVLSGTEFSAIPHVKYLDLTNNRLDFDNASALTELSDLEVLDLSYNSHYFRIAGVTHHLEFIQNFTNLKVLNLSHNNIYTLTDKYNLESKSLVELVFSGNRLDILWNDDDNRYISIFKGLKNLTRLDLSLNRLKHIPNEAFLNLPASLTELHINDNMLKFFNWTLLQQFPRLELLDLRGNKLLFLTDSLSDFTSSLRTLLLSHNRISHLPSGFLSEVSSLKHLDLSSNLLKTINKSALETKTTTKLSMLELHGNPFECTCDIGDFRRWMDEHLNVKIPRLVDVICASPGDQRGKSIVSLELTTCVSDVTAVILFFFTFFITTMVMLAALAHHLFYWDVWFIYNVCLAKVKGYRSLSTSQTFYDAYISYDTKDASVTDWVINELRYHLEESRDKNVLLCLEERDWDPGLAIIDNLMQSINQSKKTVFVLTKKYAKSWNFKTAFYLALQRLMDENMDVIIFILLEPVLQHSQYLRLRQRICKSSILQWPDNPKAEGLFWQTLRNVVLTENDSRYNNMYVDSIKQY

[10] = tested on: THP-1; test: Cytotoxicity against human THP1 cells assessed as reduction in cell viability at 50 uM after 24 hrs by MTT assay; type: cell-based; conditions: thp-1, 24 h

Chain of Toll-like receptor 3 (Homo sapiens) (O15455 whole entry): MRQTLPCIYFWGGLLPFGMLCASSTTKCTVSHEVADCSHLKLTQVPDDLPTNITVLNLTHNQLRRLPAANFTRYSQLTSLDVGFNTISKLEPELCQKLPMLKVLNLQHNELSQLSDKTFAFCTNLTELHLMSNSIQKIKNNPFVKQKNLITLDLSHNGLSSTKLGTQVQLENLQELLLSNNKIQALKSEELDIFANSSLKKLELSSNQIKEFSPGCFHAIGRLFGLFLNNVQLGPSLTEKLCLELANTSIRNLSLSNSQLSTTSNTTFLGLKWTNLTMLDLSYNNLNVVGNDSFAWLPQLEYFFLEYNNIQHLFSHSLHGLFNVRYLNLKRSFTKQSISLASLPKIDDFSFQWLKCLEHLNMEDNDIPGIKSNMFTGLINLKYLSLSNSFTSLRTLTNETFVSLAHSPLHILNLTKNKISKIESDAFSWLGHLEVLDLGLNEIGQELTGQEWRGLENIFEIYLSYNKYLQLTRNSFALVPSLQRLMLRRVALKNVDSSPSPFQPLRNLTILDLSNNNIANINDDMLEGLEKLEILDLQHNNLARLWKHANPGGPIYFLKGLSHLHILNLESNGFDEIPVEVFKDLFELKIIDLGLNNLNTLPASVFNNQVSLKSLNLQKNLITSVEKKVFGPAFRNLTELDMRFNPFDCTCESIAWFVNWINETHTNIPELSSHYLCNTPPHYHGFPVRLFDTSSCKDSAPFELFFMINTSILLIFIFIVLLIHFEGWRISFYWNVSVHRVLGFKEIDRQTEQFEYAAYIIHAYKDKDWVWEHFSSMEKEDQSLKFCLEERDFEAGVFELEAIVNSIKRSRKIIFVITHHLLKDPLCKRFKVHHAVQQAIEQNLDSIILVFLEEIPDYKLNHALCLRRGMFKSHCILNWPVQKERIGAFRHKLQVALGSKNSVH
Chain of Toll-like receptor 4 (Homo sapiens) (O00206 whole entry): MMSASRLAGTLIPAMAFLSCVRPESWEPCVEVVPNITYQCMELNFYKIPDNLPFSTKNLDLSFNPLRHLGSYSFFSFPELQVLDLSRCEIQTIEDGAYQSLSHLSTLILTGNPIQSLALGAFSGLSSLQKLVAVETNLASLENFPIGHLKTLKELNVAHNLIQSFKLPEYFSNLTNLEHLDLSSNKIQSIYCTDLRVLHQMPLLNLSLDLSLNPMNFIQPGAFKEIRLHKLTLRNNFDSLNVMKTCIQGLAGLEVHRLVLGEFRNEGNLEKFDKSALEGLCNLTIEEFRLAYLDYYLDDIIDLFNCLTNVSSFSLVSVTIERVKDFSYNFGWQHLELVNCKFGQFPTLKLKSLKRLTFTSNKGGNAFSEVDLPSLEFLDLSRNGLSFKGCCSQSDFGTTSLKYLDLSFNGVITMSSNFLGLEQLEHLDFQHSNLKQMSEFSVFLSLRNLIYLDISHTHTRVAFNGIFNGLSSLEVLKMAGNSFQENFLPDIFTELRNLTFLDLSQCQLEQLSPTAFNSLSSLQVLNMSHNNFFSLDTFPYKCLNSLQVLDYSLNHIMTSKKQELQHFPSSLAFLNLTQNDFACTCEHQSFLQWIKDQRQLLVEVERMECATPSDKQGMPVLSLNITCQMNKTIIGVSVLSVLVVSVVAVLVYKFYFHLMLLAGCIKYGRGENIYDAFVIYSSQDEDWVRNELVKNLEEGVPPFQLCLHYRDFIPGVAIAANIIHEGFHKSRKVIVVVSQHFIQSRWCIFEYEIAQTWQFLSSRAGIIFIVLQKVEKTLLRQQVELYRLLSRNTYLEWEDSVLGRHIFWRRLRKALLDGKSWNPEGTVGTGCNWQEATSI

| SMILES | inhibition [1] | inhibition (INH) [2] | Activity [3] | inhibition [4] | Activity [5] | inhibition (INH) [6] | inhibition [7] | Activity [8] | inhibition [9] | Activity [10] |
| --- | --- | --- | --- | --- | --- | --- | --- | --- | --- | --- |
| CCCCNc1nc(-c2cccs2)cc(C(F)(F)F)n1 | inactive | 50% | Non-Toxic | inactive | Non-Toxic | >60% | inactive | – | – | – |
| FC(F)(F)c1cc(-c2ccco2)nc(NCc2cccs2)n1 | inactive | >70% | – | inactive | – | 40% | inactive | Toxic | Dose-dependent effect | Toxic |
| FC(F)(F)c1cc(-c2ccccc2)nc(NCc2cccs2)n1 | inactive | >70% | Non-Toxic | inactive | Non-Toxic | 40% | inactive | – | – | – |
